In PMC12186255, “Discovery and Characterization of Small Molecule Inhibitors Targeting Exonuclease 1 for Homologous Recombination-Deficient Cancer Therapy” (ACS Chemical Biology, 2025):
pIC50: −log10 of the molar value.

Experiments:
[1] = tested on: MDA-MB-231 cells; assay: Gel-based phospho-RPA end resection assay; type: cell-based, human; settings: inhibitor overnight then 2 μM CPT 2 h, C5 10 μM
Protocol: The levels of RPA32 and phosphorylated RPA32 (S33) were analyzed by Western blotting using antibodies against RPA32 and phosphorylated RPA32 (S33). The total level of tubulin was used as a control. (b) Ratio of P-RPA:RPA levels calculated from panel a. […] U2OS cells carrying a GFP reporter for HR were infected with adenovirus expressing the I-SceI restriction enzyme. […] U2OS cells carrying a GFP reporter for HR were infected with adenovirus expressing the I-SceI restriction enzyme. […] For panels c and d, after 48 h, the cells were harvested, and the GFP-positive cells were analyzed by flow cytometry. Values are the mean ± S.D. of three independent experiments.
The treated cells were then lysed in the SDS-PAGE sample buffer, and the lysate was separated by SDS-PAGE prior to immobilization on a nitrocellulose membrane and Western blotting. Antibodies against unphosphorylated RPA, S33-P-RPA2, and tubulin were subsequently assayed according to the manufacturer’s recommendations. The ratio of P-RPA/RPA levels were quantified via ImageJ.

[2] = target: T1, EXO1 (Homo sapiens, UniProt Q9UQ84); assay: FRET-based EXO1 exonuclease activity assay, dose-response; type: biochemical; settings: nick substrate, 30 min, 37 °C
T1 construct: made in house
T1 sequence (Q9UQ84 1-846): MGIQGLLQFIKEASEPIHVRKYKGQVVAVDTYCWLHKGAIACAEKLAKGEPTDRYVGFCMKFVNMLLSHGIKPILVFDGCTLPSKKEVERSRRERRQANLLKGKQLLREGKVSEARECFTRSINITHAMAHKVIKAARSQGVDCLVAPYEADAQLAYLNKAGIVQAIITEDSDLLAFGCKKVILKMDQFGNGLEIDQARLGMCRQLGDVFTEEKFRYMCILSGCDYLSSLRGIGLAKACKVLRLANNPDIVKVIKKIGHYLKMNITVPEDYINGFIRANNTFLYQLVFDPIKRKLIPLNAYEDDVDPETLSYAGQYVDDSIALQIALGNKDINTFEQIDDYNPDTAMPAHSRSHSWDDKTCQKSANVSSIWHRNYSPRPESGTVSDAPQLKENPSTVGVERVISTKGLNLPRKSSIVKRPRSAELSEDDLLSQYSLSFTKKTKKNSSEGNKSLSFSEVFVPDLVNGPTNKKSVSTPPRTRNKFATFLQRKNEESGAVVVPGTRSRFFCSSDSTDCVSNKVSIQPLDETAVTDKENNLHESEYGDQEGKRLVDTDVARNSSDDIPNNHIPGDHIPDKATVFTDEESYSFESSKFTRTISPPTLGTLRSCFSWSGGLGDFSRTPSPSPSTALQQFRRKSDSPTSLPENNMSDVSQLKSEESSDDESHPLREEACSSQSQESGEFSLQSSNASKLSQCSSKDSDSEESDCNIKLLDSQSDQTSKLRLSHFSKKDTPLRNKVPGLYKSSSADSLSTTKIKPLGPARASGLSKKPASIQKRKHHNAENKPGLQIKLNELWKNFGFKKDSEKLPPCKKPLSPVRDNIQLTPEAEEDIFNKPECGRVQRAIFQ
Description: We developed a cell-free in vitro assay to detect EXO1 exonuclease activity based on FRET quenching. […] A ZEN quencher and IowaBlackFQ quencher were attached to the downstream oligo internally and at the 3' end, respectively, to suppress FAM signal. Two quenchers were used to provide better quenching effects than did a single quencher, as recommended by the manufacturer (IDT). The sequence of the nick substrate was as follows: up-primer: [NT]; template: [NT]; and probe: […] . When EXO1 cleaved the nick substrate, the FAM-labeled nucleotide was untethered from the substrate and yielded a bright green fluorescence. […] Fluorescent signals were measured after a 30 min incubation. […] Data were normalized by subtracting the relative fluorescence unit (RFU) of the blank sample from that of each EXO1-containing reaction. The relative activity of individual compounds was subsequently calculated by setting the corrected RFU of EXO1 with DMSO as 100% and comparing the corrected RFU for each condition to the DMSO value. Each assay was performed by sequentially adding experimental compounds, the EXO1 enzyme, and the DNA substrate to minimize starting differences.

[3] = target: T2, FEN1 (Homo sapiens, UniProt P39748); assay: Analogous FRET-based counter screen with purified FEN1; type: biochemical; settings: FRET-based assay, maximum inhibitor concentration 100 μM
T2 construct: made in house
T2 sequence (P39748 whole entry): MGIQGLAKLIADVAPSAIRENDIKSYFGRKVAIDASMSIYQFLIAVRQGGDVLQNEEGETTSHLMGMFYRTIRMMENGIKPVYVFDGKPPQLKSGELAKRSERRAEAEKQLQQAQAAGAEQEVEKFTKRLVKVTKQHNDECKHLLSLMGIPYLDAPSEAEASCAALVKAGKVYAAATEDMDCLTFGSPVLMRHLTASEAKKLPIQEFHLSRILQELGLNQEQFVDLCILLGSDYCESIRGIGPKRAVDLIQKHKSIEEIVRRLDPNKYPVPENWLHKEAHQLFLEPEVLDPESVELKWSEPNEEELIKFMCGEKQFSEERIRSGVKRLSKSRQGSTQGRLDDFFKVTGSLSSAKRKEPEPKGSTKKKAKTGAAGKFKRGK
Protocol: Data were normalized by subtracting the relative fluorescence unit (RFU) of the blank sample from that of each EXO1-containing reaction. The relative activity of individual compounds was subsequently calculated by setting the corrected RFU of EXO1 with DMSO as 100% and comparing the corrected RFU for each condition to the DMSO value. Each assay was performed by sequentially adding experimental compounds, the EXO1 enzyme, and the DNA substrate to minimize starting differences. […] Following IC50 screening, an analogous FRET-based assay was performed using purified FEN1 to assess the EXO1 specificity of each compound.
For subsequent hit confirmation, 84 compounds from the primary screen were picked from our internal stock and subjected to a dose-dependent response assay starting at 100 μM with 3-fold serial dilution. To analyze the data from the dose-dependent response assay, IC50 values for each hit were calculated through nonlinear regression analysis using GraphPad Prism 10 (GraphPad Software, Inc.). […] Subsequently, a counter screen was performed to eliminate potential false-positive hits. To accomplish this, we established an analogous FRET assay using the purified FEN1 enzyme in place of EXO1.

[4] = tested on: SF-295; assay: Cell line drug profiling, CellTiter Glo; type: cell-based, human
Protocol: (§1) We tested the cytotoxicity of representative compounds from the seven EXO1i scaffolds against a subset of the NCI-60 cell line panel along with three additional pancreatic cell lines (FG, AsPC1, and CaPan2). In general, cells were seeded in 384-well tissue culture-treated plates overnight and treated with various concentrations of each hit compound (a serial 3-fold dilution from 50 μM for all tested hits). Each concentration was performed in duplicate. Cell viability was then measured by CellTiter Glo (Promega) after 72 h of treatment.

[5] = tested on: MDA-MB-468; assay: Cell line drug profiling, CellTiter Glo; type: cell-based, human
Protocol: as §1

[6] = tested on: SKOV-3; assay: Cell line drug profiling, CellTiter Glo; type: cell-based; settings: Homo sapiens, SK-OV-3; SKOV-3, Ovarian, 72 h
Protocol: as §1

[7] = tested on: HL-60(TB); assay: Cell line drug profiling, CellTiter Glo; type: cell-based; settings: Homo sapiens, Leukemia, 72 h
Protocol: as §1

[8] = tested on: T-47D; assay: Cell line drug profiling, CellTiter Glo; type: cell-based; settings: Homo sapiens, T47D, Breast, 72 h
Protocol: as §1

[9] = tested on: SNB-19; assay: Cell line drug profiling, CellTiter Glo; type: cell-based; settings: Homo sapiens; SNB-19, Central Nervous System, 72 h
Protocol: as §1

[10] = tested on: OVCAR-3; assay: Cell line drug profiling, CellTiter Glo; type: cell-based; settings: Homo sapiens; OVCAR-3, Ovarian, 72 h
Protocol: as §1

[11] = tested on: U251; assay: Cell line drug profiling, CellTiter Glo; type: cell-based; settings: Homo sapiens, U-251; U251, Central Nervous System, 72 h
Protocol: as §1

[12] = tested on: OVCAR-4; assay: Cell line drug profiling, CellTiter Glo; type: cell-based; settings: Homo sapiens; OVCAR-4, Ovarian, 72 h
Protocol: as §1

[13] = tested on: DU145; assay: Cell line drug profiling, CellTiter Glo; type: cell-based; settings: Homo sapiens, DU-145; DU145, Prostate, 72 h
Protocol: as §1

[14] = tested on: MCF7 (B3); assay: Cell line drug profiling, CellTiter Glo; type: cell-based; settings: Homo sapiens, Breast, 72 h
Protocol: as §1

[15] = tested on: SF-268; assay: Cell line drug profiling, CellTiter Glo; type: cell-based; settings: Homo sapiens; SF-268, Central Nervous System, 72 h
Protocol: as §1

[16] = tested on: UO-31; assay: Cell line drug profiling, CellTiter Glo; type: cell-based; settings: Homo sapiens; UO-31, Kidney, 72 h
Protocol: as §1

[17] = tested on: AsPC1; assay: Cell line drug profiling, CellTiter Glo; type: cell-based; settings: Homo sapiens; AsPC1, Pancreatic, 72 h
Protocol: as §1

[18] = tested on: MCF7; assay: Cell line drug profiling, CellTiter Glo; type: cell-based; settings: Homo sapiens; MCF7, Breast, 72 h
Protocol: as §1

[19] = tested on: CaPan2; assay: Cell line drug profiling, CellTiter Glo; type: cell-based; settings: Homo sapiens, Capan-2; CaPan2, Pancreatic, 72 h
Protocol: as §1

[20] = tested on: IGR-OV1; assay: Cell line drug profiling, CellTiter Glo; type: cell-based; settings: Homo sapiens, IGROV-1; IGR-OV1, Ovarian, 72 h
Protocol: as §1

[21] = tested on: MDA-MB-231; assay: Cell line drug profiling, CellTiter Glo; type: cell-based; settings: Homo sapiens; MDA-MB-231, Breast, 72 h
Protocol: as §1

[22] = tested on: FG; assay: Cell line drug profiling, CellTiter Glo; type: cell-based; settings: Homo sapiens, Pancreatic, 72 h
Protocol: as §1

[23] = tested on: ACHN; assay: Cell line drug profiling, CellTiter Glo; type: cell-based; settings: Homo sapiens, Kidney, 72 h
Protocol: as §1

[24] = tested on: BT549; assay: Cell line drug profiling, CellTiter Glo; type: cell-based; settings: Homo sapiens, BT-549; BT549, Breast, 72 h
Protocol: as §1

[25] = tested on: HS 578T; assay: Cell line drug profiling, CellTiter Glo; type: cell-based; settings: Homo sapiens, Breast, 72 h
Protocol: as §1

[26] = tested on: H23; assay: Cell line drug profiling, CellTiter Glo; type: cell-based; settings: Homo sapiens, NCI-H23; H23, Lung, 72 h
Protocol: as §1

[27] = tested on: DU145 (B3); assay: Cell line drug profiling, CellTiter Glo; type: cell-based; settings: Homo sapiens, DU-145, Prostate, 72 h
Protocol: as §1

[28] = tested on: OVCAR-8; assay: Cell line drug profiling, CellTiter Glo; type: cell-based; settings: Homo sapiens; OVCAR-8, Ovarian, 72 h
Protocol: as §1

[29] = tested on: SK-MEL-28; assay: Cell line drug profiling, CellTiter Glo; type: cell-based; settings: Homo sapiens; SK-MEL-28, Melanoma, 72 h
Protocol: as §1

[30] = tested on: PC3; assay: Cell line drug profiling, CellTiter Glo; type: cell-based; settings: Homo sapiens, PC-3; PC3, Prostate, 72 h
Protocol: as §1

[31] = tested on: UACC-257; assay: Cell line drug profiling, CellTiter Glo; type: cell-based; settings: Homo sapiens; UACC-257, Melanoma, 72 h
Protocol: as §1

[32] = tested on: CCRF-CEM; assay: Cell line drug profiling, CellTiter Glo; type: cell-based; settings: Homo sapiens, Leukemia, 72 h
Protocol: as §1

[33] = tested on: OVCAR-5; assay: Cell line drug profiling, CellTiter Glo; type: cell-based; settings: Homo sapiens; OVCAR-5, Ovarian, 72 h
Protocol: as §1

[34] = tested on: NCI/ADR-RES; assay: Cell line drug profiling, CellTiter Glo; type: cell-based; settings: Homo sapiens, Ovarian, 72 h
Protocol: as §1

[35] = target: T1, EXO1; assay: Thermal shift assay; type: binding; settings: maximum shift in Tm of EXO1 vs DMSO, increasing inhibitor concentrations
Protocol: To assess for changes in the thermal stability of EXO1 protein in response to treatment with candidate small molecule inhibitors or DMSO (vehicle control), the thermal shift assay (Applied Biosystems Protein Thermal Shift Dye Kit, Cat. #4461146) was utilized. The protein melt reaction mix consisted of freshly prepared 10× thermal shift dye, purified EXO1 enzyme (1 μg/uL), thermal shift buffer, DMSO or inhibitors, and sterilized Milli-Q water. A drug-free supermix was premade and dispensed in 96-well PCR plates followed by the addition of DMSO or inhibitors with increasing concentration. The reaction plate was heated from 10 to 98 °C at a rate of 0.5° per 10 s cycle, and the fluorescence intensity of individual wells was measured at 490/530 nm using a BioRad CFX96 Touch Real-Time PCR System. The fluorescence measurements of three technical replicates per treatment condition were then averaged to calculate melting temperature shift (ΔT m) as a readout for compound binding affinity.

In the case of O=C(O)c1c[nH]c2c([N+](=O)[O-])cccc2c1=O [C5, reference compound], the “CPT-induced P-RPA levels (DNA end resection)” value [1] was “significant reduction”.

Cc1c(Cl)cccc1NCc1cc(=O)n2nc(-c3ccc(C(C)(C)C)cc3)nc2[nH]1 [D351] was tested, and the pIC50 [2] was 5.10 and the pIC50 [3] was < 4.00.

In the case of O=S(=O)(Nc1nc2n(n1)C(c1ccc(F)cc1)C=C(c1ccccc1)N2)c1ccc(Cl)cc1 (stereo not shown) [D413-0213], the pIC50 ([4]; SF-295, Central Nervous System, 72 h) was 4.40 and the pIC50 ([5]; MDA-MB-468, Breast, 72 h) was 4.70.

O=S(=O)(Nc1nc2n(n1)C(c1ccccc1)C=C(c1ccc(Cl)cc1)N2)c1ccc(Cl)cc1 (stereo not shown) [D413] was tested, and the pIC50 [3] was < 4.00.

With O=C(Nc1ccc(N2CCC(Cc3ccccc3)CC2)cc1C(=O)O)c1ccccc1Cl [F685] the pIC50 [6] was 4.61, the pIC50 [7] was 4.76 and the pIC50 [8] was 4.77. For the same compound, the pIC50 [9] was 4.78, the pIC50 [10] was 5.24 and the pIC50 [11] was 4.85. For the same compound, the pIC50 [12] was 4.67, the pIC50 [13] was 4.90 and the pIC50 [14] was 4.43. It also gave a pIC50 [15] of 4.31, a pIC50 [16] of 5.08 and a pIC50 [17] of 4.36. The pIC50 [18] was 4.36, the pIC50 [19] was 4.35 and the pIC50 [20] was 4.74. For the same compound, the pIC50 [21] was 4.50, the pIC50 [22] was < 4.30 and the pIC50 [23] was 4.70. The pIC50 [24] was 4.75, the pIC50 [25] was 4.64 and the pIC50 [26] was 4.63. It also gave a pIC50 [27] of 4.85, a pIC50 [28] of 4.73 and a pIC50 [29] of 4.33. It also gave a pIC50 [30] of 4.70, a pIC50 [31] of 4.67 and a pIC50 [32] of 4.83. The pIC50 [33] was 4.71, the pIC50 [34] was 4.75 and the pIC50 ([4]; Homo sapiens, SF-295, 72 h) was 4.55. The pIC50 ([5]; Homo sapiens, MDA-MB-468, 72 h) was 4.33 and the pIC50 [3] was < 4.00.

In the case of Cc1ccccc1C(=O)Nc1ccc(N2CCN(c3ccccc3Cl)CC2)c(C(=O)O)c1 [G889], the ΔT m [35] was ~1 °C and the pIC50 [3] was < 4.00.
